Laboratory results published in US10543183B2, “Treatment and diagnosis of melanoma” (The Rockefeller University, priority 2012, dated 2020).
Counter-ions that a name gives are not always drawn.

What was measured:
[1] = tested on: breast, renal, pancreatic and lung cancer cell lines; assay: trans-well matrigel invasion assay, other cancer types; assay type: cell-based, human
Method: The ability of cancer cells to invade through matrigel in vitro was tested by using a trans-cell matrigel invasion chamber system (354480, BD Biosciences). Various cancer cell lines were serum-starved overnight in media containing 0.2% FBS. The following day, invasion chambers were pre-equilibrated prior to the assay by adding 0.5 mL of starvation media to the top and bottom wells. Meanwhile, cancer cells were trypsinized and viable cells were counted using the trypan blue dead cell exclusion dye. Cancer cells were then resuspended at a concentration of 1×10^5 cells/1 mL starvation media, and 0.5 mL of cell suspension, containing 5×10^4 cells, was seeded into each trans-well. […] The basal side of each insert was imaged using an inverted fluorescence microscope (Zeiss Axiovert 40 CFL) at 5× magnification, and the number of DAPI-positive cells was quantified using ImageJ.
The cells were serum starved for 16 hours in 0.2% FBS media in the presence of DMSO or GW3965. […] Meanwhile, cancer cells were trypsinized and viable cells were counted using trypan blue. […] The basal side of each insert was imaged using an inverted fluorescence microscope (Zeiss Axiovert 40 CFL) at 5× magnification, and the number of DAPI-positive cells was quantified using ImageJ.

[2] = tested on: VEGF-induced endothelial recruitment; assay: in vivo matrigel plug assay; parameters: species or system mouse; conditions: VEGF 400 ng/mL + 10 μg/mL
Method: 10 μg/mL recombinant human ApoE3 (4696, BioVision), 10 μg/mL BSA (A2153, Sigma Aldrich), or 400 ng/ml VEGF were mixed with matrigel (356231, BD Biosciences) as indicated. 400 μL of matrigel containing the indicated recombinant proteins were injected subcutaneously just above the ventral flank of immunocompromised NOD-SCID mice. Plugs were extracted on day 3 post-injection and fixed in 4% paraformaldehyde for 48 hours. Plugs were then paraffin-embedded and sectioned at 5-μm-thick increments. Plug cross-sectional sections were immunohistochemically stained using a primary antibody against the mouse endothelial antigen MECA-32 (Developmental Studies Hybridoma Bank, The University of Iowa, IA), detected by peroxidase-conjugated secondary antibody, and subsequently visualized by DAB oxidization. To quantify the extent of endothelial cell invasion into each matrigel plug, the number of endothelial cells was counted in 4-5 random fields for each plug, and the average number of endothelial cells per given plug area was calculated.

[3] = tested on: ApoE expression in human melanoma cells; assay: ApoE mRNA expression by qRT-PCR in melanoma cells; assay type: cell-based
Method: Total RNA was extracted from various cell lines using the miRvana kit (AM1560, Applied Biosystems, Austin, Tex.). The expression levels of mature miRNAs were quantified using the Taqman miRNA expression assay (4427975-0002228, Applied Biosystems). RNU44 was used as an endogenous control for normalization. For mRNA expression analyses, 600 ng of total RNA was reverse transcribed using the cDNA First-Strand Synthesis Kit (18080-051, Invitrogen), and roughly 200 ng of the resulting cDNA was then mixed with SYBR green PCR Master Mix (4309155, Applied Biosystems) and the appropriate primers. Each reaction was performed in quadruplicate, and mRNA expression was quantified by performing real-time PCR amplification using an ABI Prism 7900HT Real-Time PCR System (Applied Biosystems). GAPDH was used as an endogenous control for normalization. The following primers were used: […]
RNA was extracted from whole cell lysates using the Total RNA Purification Kit (17200, Norgen, Thorold, Canada). 600 ng of total RNA was then reverse transcribed into cDNA using the cDNA First-Strand Synthesis Kit (18080-051, Invitrogen), and quantitative real-time PCR amplification was performed as previously described (Pencheva et al., 2012) using an ABI Prism 7900HT Real-Time PCR System (Applied Biosystems, Austin, Tex.). Each PCR reaction was carried out in quadruplicates. Gene expression was normalized to GAPDH, which was used as an endogenous control.
For every sample, 600 ng of RNA was reverse transcribed into cDNA using the cDNA First-Strand Synthesis kit (Invitrogen). Approximately 200 ng of cDNA was mixed with SYBR® green PCR Master Mix and the corresponding forward and reverse primers specific for detection of human ApoE. Each reaction was carried out in quadruplicates, and ApoE mRNA expression levels were measured by quantitative real-time PCR amplification using an ABI Prism 7900HT Real-Time PCR System (Applied Biosystems). The relative ApoE expression was determined using the ΔΔCt method. GAPDH was used as an endogenous control for normalization purposes.

[4] = tested on: B16F10 mouse melanoma cells; assay: subcutaneous B16F10 tumor growth in mice; assay type: in vivo; conditions: chow 100 mg/kg
Method: First, the cells were treated with 500 μg/mL DTIC for one week. Following this initial DTIC treatment, the remaining (˜10%) viable cells were allowed to recover for one week, after which 750 μg/mL of DTIC was added to the cell media for 5 days. Subsequent to this high-dose treatment, the cells were allowed to recover in the presence of low-dose DTIC (100 μg/mL) for one week. The cells were then continuously cultured in cell media containing 200 μg/mL DTIC for at least one month prior to grafting the cells into mice. DTIC was added to fresh cancer cell media every 3 days. […] DTIC was dissolved in the presence of citric acid (1:1 by weight) in water and administered daily by intraperitoneal injection.

[5] = tested on: MDA-468 human breast cancer cells; assay: MDA-468 breast cancer tumor growth in mammary fat pads; assay type: in vivo, mouse; conditions: diet 75 mg/kg/day
Method: The mice were assigned to a control diet treatment or a GW3965-supplemented diet treatment (75 mg/kg/day) two days prior to injection of the cancer cells.

Compound | tumor cell invasion across breast, renal cell and pancreatic cancer ([1]; 100 μg/mL at start of assay) | suppression of VEGF-induced endothelial recruitment into subcutaneous matrigel plugs [2] | potency of ApoE expression induction in vitro [3] | expression of ApoE ([3]; parental MeWo cells, 48 hours) | suppression of tumor growth by DTIC-resistant B16F10 clone [4] | tumor cell invasion of renal, pancreatic and lung cancer cells ([1]; RCC, PANC1, H460 cells, 1 μM for 72 hours) | breast cancer tumor size in vivo [5]
recombinant ApoE3: recombinant human ApoE3 (4696, BioVision) | inhibited | greater than 40 fold |  |  |  |  | 
O=S(=O)(c1ccccc1)N(CC(F)(F)F)c1ccc(C(O)(C(F)(F)F)C(F)(F)F)cc1 [T0901317 1] |  |  | potently induce |  |  |  | 
O=C(O)Cc1cccc(OCCCN(Cc2cccc(C(F)(F)F)c2Cl)CC(c2ccccc2)c2ccccc2)c1 [GW3965 2, 3-[3-[N-(2-Chloro-3-trifluoromethylbenzyl)-(2,2-diphenylethyl)amino]propyloxy] phenylacetic acid hydrochloride] |  |  | potently induce | increased expression | more than 70% | inhibition | significant reduction
